Data reported in patent US10251932B2, “Preparations containing amorphous emodepside” (Bayer Intellectual Property GmbH, priority 2011, dated 2019).
≈ marks a conversion by molar mass, not a printed value.

Experiment: Solubility of emodepside in water
Format: physicochemical
Settings: range of pH 4-10

- solubility: 5 to 7 µg/mL (≈ 4.47 to 6.25 µM)
Compound: CC(C)CC1C(=O)OC(Cc2ccc(N3CCOCC3)cc2)C(=O)N(C)C(CC(C)C)C(=O)OC(C)C(=O)N(C)C(CC(C)C)C(=O)OC(Cc2ccc(N3CCOCC3)cc2)C(=O)N(C)C(CC(C)C)C(=O)OC(C)C(=O)N1C [Emodepside, cyclo[(R)-lactoyl-N-methyl-1-leucyl-(R)-3-(p-morpholinophenyl)lactoyl-N-methyl-1-leucyl-(R)-lactoyl-N-methyl-1-leucyl-(R)-3-(p-morpholinophenyl)lactoyl-N-methyl-1-leucyl]
